Experimental data as given in ChEMBL document CHEMBL1144954, “Synthesis and preliminary evaluation of (R,R)(S,S) 5-(2-(2-[4-(2-[(18)F]fluoroethoxy)phenyl]-1-methylethylamino)-1-hydroxyethyl)-benzene-1,3-diol ([(18)F]FEFE) for the in vivo visualisation and quantification of the beta2-adrenergic receptor status in lung” (Bioorg Med Chem Lett, 2003).

Tests used:
[1] = Distribution in heart expressed as [18F]- organ uptake in % of injected activity/gram; type: ADME, tissue-based, Cavia porcellus; details: guinea pig
[2] = Distribution in kidney expressed as [18F]- organ uptake in % of injected activity/gram; type: ADME, tissue-based, Cavia porcellus; details: guinea pig
[3] = Distribution in liver expressed as [18F]- organ uptake in % of injected activity/gram; type: ADME, tissue-based, Cavia porcellus; details: guinea pig
[4] = Distribution in intestine expressed as [18F]- organ uptake in % of injected activity/gram; type: ADME, tissue-based, Cavia porcellus; details: guinea pig
[5] = Distribution in lung expressed as [18F]- organ uptake in % of injected activity/gram; type: ADME, tissue-based, Cavia porcellus; details: guinea pig
[6] = Half-life was measured; type: ADME, Cavia porcellus; details: guinea pig
[7] = biological target: Beta-2 adrenergic receptor (Cavia porcellus, UniProt Q8K4Z4); assay: In vitro inhibitory concentration Beta-2 adrenergic receptor in Guinea pig trachea
[8] = Distribution in blood expressed as [18F]- organ uptake in % of injected activity/gram; type: ADME, tissue-based, Cavia porcellus; details: guinea pig
[9] = Distribution in spleen expressed as [18F]- organ uptake in % of injected activity/gram; type: ADME, tissue-based, Cavia porcellus; details: guinea pig
[10] = Distribution in brain expressed as [18F]- organ uptake in % of injected activity/gram; type: ADME, tissue-based, Cavia porcellus; details: guinea pig

Beta-2 adrenergic receptor, sequence (Q8K4Z4 whole entry): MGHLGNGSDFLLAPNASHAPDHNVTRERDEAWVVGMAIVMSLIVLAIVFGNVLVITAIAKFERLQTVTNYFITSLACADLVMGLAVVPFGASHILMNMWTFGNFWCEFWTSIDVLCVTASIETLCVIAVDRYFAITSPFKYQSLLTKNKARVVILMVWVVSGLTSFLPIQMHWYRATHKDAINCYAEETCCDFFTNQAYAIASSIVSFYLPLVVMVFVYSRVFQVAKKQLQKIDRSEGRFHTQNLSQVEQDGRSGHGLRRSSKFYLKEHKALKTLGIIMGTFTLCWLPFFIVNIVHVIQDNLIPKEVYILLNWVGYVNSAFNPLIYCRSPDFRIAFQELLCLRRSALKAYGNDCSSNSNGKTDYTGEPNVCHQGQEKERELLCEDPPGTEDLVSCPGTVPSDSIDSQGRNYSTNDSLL

CC(Cc1ccc(OCCF)cc1)NCC(O)c1cc(O)cc(O)c1 (stereo not given)
ID/g [1]: 0.49%
ID/g [2]: 0.7%
ID/g [3]: 0.95%
ID/g [4]: 0.77%
ID/g [5]: 1.16%
half-life [6]: 1.83 h
IC50 [7]: 60 nM
ID/g [8]: 0.22%
ID/g [9]: 0.84%
ID/g [10]: 0.02%
